Like-named read-outs stand apart in the source and are kept apart here.
Legend:
Assay in all cases: Kinase panel profiling at 1 µmol/L (MSA or IMAP), percentage inhibition
Assay type in all cases: biochemical
[1] = biological target: panel of 255 wild-type kinases (Homo sapiens, UniProt P49760); details: read-out: %-inhibition at 1 µmol/L, CLK2
[2] = biological target: panel of 255 wild-type kinases (Homo sapiens, UniProt Q9P289); details: read-out: %-inhibition, MST4
[3] = biological target: T1, panel of 255 wild-type kinases (Homo sapiens, UniProt Q9NZJ5); details: read-out: %-inhibition at 1 µmol/L, PEK
T1 sequence (Q9NZJ5 30-1116): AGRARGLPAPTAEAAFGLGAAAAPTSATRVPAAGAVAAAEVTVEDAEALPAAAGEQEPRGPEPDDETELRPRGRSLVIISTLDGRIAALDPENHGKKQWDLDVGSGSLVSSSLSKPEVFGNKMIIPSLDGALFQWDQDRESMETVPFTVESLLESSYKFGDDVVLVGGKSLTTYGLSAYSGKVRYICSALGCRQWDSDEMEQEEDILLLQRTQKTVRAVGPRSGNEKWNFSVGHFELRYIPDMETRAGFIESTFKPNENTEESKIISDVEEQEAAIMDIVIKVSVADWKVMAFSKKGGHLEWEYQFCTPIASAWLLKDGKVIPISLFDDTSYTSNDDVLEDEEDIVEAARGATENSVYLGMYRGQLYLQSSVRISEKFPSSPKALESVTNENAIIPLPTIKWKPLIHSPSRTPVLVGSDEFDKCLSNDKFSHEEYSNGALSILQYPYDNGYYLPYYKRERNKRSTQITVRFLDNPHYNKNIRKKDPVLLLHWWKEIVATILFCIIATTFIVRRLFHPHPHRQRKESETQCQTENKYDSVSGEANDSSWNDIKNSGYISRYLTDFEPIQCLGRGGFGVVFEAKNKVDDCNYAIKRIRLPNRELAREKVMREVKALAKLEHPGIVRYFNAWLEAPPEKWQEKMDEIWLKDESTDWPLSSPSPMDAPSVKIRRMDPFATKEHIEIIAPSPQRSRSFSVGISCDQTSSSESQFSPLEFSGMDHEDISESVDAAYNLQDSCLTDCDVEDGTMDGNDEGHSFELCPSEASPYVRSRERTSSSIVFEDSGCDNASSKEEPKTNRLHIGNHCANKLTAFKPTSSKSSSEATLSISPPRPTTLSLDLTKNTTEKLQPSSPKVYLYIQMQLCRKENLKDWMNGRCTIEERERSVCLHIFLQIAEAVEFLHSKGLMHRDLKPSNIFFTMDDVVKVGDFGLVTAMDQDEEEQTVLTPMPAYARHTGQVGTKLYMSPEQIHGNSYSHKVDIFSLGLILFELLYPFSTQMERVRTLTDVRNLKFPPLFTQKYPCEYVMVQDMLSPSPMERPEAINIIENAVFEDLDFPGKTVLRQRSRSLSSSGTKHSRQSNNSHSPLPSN

[4] = biological target: T2, panel of 255 wild-type kinases (Homo sapiens, UniProt Q14164); details: read-out: %-inhibition at 1 µmol/L, IKKε
T2 sequence (Q14164 1-716): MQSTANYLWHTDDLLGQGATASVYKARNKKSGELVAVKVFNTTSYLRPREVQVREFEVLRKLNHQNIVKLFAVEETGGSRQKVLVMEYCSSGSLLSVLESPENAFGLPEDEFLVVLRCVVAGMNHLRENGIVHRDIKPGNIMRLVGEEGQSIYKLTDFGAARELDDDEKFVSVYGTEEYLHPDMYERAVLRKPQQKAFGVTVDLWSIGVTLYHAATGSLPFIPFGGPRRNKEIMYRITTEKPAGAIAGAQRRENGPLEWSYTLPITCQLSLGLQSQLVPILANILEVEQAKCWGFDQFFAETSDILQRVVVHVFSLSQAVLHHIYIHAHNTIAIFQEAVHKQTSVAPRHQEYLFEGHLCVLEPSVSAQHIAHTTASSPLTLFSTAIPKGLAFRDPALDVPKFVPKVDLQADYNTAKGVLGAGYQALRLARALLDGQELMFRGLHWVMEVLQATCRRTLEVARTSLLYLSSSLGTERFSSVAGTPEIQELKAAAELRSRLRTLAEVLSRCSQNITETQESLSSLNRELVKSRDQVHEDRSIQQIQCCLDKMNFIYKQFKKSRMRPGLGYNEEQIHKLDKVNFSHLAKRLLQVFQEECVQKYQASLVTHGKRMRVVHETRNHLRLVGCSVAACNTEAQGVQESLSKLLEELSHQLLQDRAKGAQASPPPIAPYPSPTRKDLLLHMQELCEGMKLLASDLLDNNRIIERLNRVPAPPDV

[5] = biological target: panel of 255 wild-type kinases (Homo sapiens, UniProt P09619); details: read-out: %-inhibition at 1 µmol/L, PDGFRβ
[6] = biological target: panel of 255 wild-type kinases (Homo sapiens, UniProt Q13177); details: read-out: %-inhibition, PAK2
[7] = biological target: panel of 255 wild-type kinases (Homo sapiens, UniProt Q86Z02); details: read-out: %-inhibition at 1 µmol/L, HIPK1
[8] = biological target: panel of 255 wild-type kinases (Homo sapiens, UniProt Q5VT25); details: read-out: %-inhibition, MRCKα
[9] = kinase CLK2, 1 µmol/L single concentration
[10] = MST4, 1 µmol/L single concentration
[11] = kinase PEK, 1 µmol/L single concentration
[12] = kinase IKKε, 1 µmol/L single concentration
[13] = kinase PDGFRβ, 1 µmol/L single concentration
[14] = PAK2, 1 µmol/L single concentration
[15] = kinase HIPK1, 1 µmol/L single concentration
[16] = MRCKα, 1 µmol/L single concentration

Row | inhibition at 1 µM [3, 11] [%] | inhibition at 1 µM [5, 13] [%] | SMILES | inhibition at 1 µM [1, 9] [%] | inhibition at 1 µM [2, 10] [%] | inhibition at 1 µM [4, 12] [%] | inhibition at 1 µM [6, 14] [%] | inhibition at 1 µM [7, 15] [%] | inhibition at 1 µM [8, 16] [%] | inhibition at 1 µM [1] [%] | inhibition at 1 µM [2] [%] | inhibition at 1 µM [3] [%] | inhibition at 1 µM [4] [%] | inhibition at 1 µM [5] [%] | inhibition at 1 µM [6] [%] | inhibition at 1 µM [7] [%] | inhibition at 1 µM [8] [%]
1 | 5.65 | 2 | C[C@H](Nc1ncnc2nc[nH]c12)c1cc2cccc(Cl)c2c(=O)n1-c1ccccc1 [duvelisib] | 3.58 | -3.25 | -0.56 | -1 | 0.739 | -3.44 | – | – | – | – | – | – | – | –
2 | – | – | CNC(=O)c1ccc(-c2cnc3ncc(Cc4ccc5ncccc5c4)n3n2)cc1F [capmatinib] | – | – | – | – | – | – | 7 | -2.24 | 4.25 | -5.46 | 20 | -1.68 | -2.58 | 0.535
3 | 4 | -0.157 | O=C(Nc1cnn2ccc(N3CCC[C@@H]3c3cc(F)ccc3F)nc12)N1CC[C@H](O)C1 [larotrectinib] | 9 | 1.67 | 7 | -10 | -3.73 | 0.38 | – | – | – | – | – | – | – | –
4 | 4.67 | -2.23 | Cn1cnc2c(F)c(Nc3ccc(Br)cc3F)c(C(=O)NOCCO)cc21 [binimetinib] | -2.25 | 0.492 | -3 | 12 | 0.44 | -5.53 | – | – | – | – | – | – | – | –
5 | 2.16 | 94 | COc1ccc(CN2C3CC2CN(c2ccc(-c4cc(OCC(C)(C)O)cn5ncc(C#N)c45)cn2)C3)cn1 [selpercatinib] | -2.3 | 2.38 | 20 | 5 | -0.334 | -2.65 | – | – | – | – | – | – | – | –
6 | 10 | 0.0362 | Cc1nc(NC(=O)N2CCC[C@H]2C(N)=O)sc1-c1ccnc(C(C)(C)C(F)(F)F)c1 [alpelisib] | 85 | -12 | -4.31 | -7 | 9 | -2 | – | – | – | – | – | – | – | –
7 | 1.59 | 31 | Cc1cc(Nc2ncnc3ccc(NC4=NC(C)(C)CO4)cc23)ccc1Oc1ccn2ncnc2c1 [tucatinib] | 5 | 3 | -2.62 | -1.88 | 11 | 0.364 | – | – | – | – | – | – | – | –
8 | -0.188 | 20 | Cn1cnc2c(F)c(Nc3ccc(Br)cc3Cl)c(C(=O)NOCCO)cc21 [selumetinib] | 7 | -0.349 | -5.67 | -3.7 | 0.0183 | 2.24 | – | – | – | – | – | – | – | –
9 | 2.82 | 68 | COc1cc2ncnc(Nc3ccc(F)c(Cl)c3)c2cc1NC(=O)/C=C/CN1CCCCC1 [dacomitinib] | -0.6 | 12 | -2.11 | 2.5 | 3.42 | 4.59 | – | – | – | – | – | – | – | –

Row | SMILES | inhibition at 1 µM [3, 11] [%] | inhibition at 1 µM [5, 13] [%] | inhibition at 1 µM [1, 9] [%] | inhibition at 1 µM [2, 10] [%] | inhibition at 1 µM [4, 12] [%] | inhibition at 1 µM [6, 14] [%] | inhibition at 1 µM [7, 15] [%] | inhibition at 1 µM [8, 16] [%] | inhibition at 1 µM [1] [%] | inhibition at 1 µM [2] [%] | inhibition at 1 µM [3] [%] | inhibition at 1 µM [4] [%] | inhibition at 1 µM [5] [%] | inhibition at 1 µM [6] [%] | inhibition at 1 µM [7] [%] | inhibition at 1 µM [8] [%]
10 | COC(=O)N[C@@H](C)CNc1nccc(-c2cn(C(C)C)nc2-c2cc(Cl)cc(NS(C)(=O)=O)c2F)n1 [encorafenib] | 9 | 1.38 | 0.465 | -4.45 | -3.36 | 9.49 | 5.6 | 0.0684 | – | – | – | – | – | – | – | –
11 | CCN1CCN(c2ccc(Nc3cc(N(C)C(=O)Nc4c(Cl)c(OC)cc(OC)c4Cl)ncn3)cc2)CC1 [infigratinib] | 49 | 59 | 15 | -10 | -6 | 1.66 | -4.25 | 0.933 | – | – | – | – | – | – | – | –
12 | FC(F)(F)c1ccc(CNc2ccc(Cc3c[nH]c4ncc(Cl)cc34)cn2)cn1 [pexidartinib] | -10 | 64 | 3.48 | 7 | -1.81 | -2.4 | 4.72 | 0.771 | – | – | – | – | – | – | – | –
13 | CCc1nc(C(N)=O)c(Nc2ccc(N3CCC(N4CCN(C)CC4)CC3)c(OC)c2)nc1NC1CCOCC1 [gilteritinib] | – | 105 | 39 | 4.67 | 10 | 10 | 71 | 12 | – | – | – | – | – | – | – | –
14 | CCn1c(=O)c(-c2cc(NC(=O)Nc3ccccc3)c(F)cc2Br)cc2cnc(NC)cc21 [ripretinib] | 9 | – | -4 | -0.174 | -5 | 4.69 | -5.27 | -1.14 | – | – | – | – | 106 | – | – | –
15 | CN1CCN(c2ccc(C(=O)Nc3n[nH]c4ccc(Cc5cc(F)cc(F)c5)cc34)c(NC3CCOCC3)c2)CC1 [entrectinib] | 0.561 | – | 28 | 6 | 7 | -10 | 11 | -3.42 | – | – | – | – | – | – | – | –
16 | C[C@H]1Oc2cc(cnc2N)-c2c(nn(C)c2C#N)CN(C)C(=O)c2ccc(F)cc21 [lorlatinib] | -1.65 | 2.32 | 2.49 | -8 | -3.78 | 11 | -1.71 | -6 | – | – | – | – | – | – | – | –
17 | CCN1C(=O)N(c2c(F)c(OC)cc(OC)c2F)Cc2cnc3[nH]c(CN4CCOCC4)cc3c21 [pemigatinib] | 17 | 73 | 6.37 | 56 | 8.49 | 6 | 1.47 | -3.23 | – | – | – | – | – | – | – | –

— paper PMC9516332 (Frontiers in Oncology, 2022)
